Activity calls are given as the source filed them. The calls are words filed in the database; no cut-off is given here.
What was measured:
Ribonuclease pancreatic = biological target: T1, Ribonuclease pancreatic (Homo sapiens, UniProt P07998); assay: Inhibition of RNase A using dixon plot by spectrophotometric method
T1 sequence (P07998 whole entry): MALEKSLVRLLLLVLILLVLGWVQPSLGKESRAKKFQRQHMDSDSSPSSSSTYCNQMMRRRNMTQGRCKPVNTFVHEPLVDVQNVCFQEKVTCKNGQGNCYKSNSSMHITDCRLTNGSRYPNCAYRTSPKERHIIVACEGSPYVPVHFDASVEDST

[1] = biological target: T2, Ribonuclease pancreatic (Homo sapiens) (UniProt P07998); assay: Inhibition of RNase A assessed as degradation of tRNA by agarose gel assay
T2 sequence (whole entry): T1 sequence (P07998 whole entry)

[2] = biological target: T2, Ribonuclease pancreatic (Homo sapiens); assay: Inhibition of RNase A at 1.5 mM by precipitation assay

Row | Ki (Ribonuclease pancreatic) [µM] | Activity [1] | inhibition [2] | SMILES
1 | 380 |  |  | Cc1cn([C@H]2C[C@H](NC(=O)CC(=O)O)[C@@H](CO)O2)c(=O)[nH]c1=O
2 | 132 | Active | Active | Cc1cn([C@H]2C[C@H](NC(=O)C(=O)O)[C@@H](CO)O2)c(=O)[nH]c1=O
3 | 918 |  |  | Cc1cn([C@H]2C[C@H](NC(=O)CCC(=O)O)[C@@H](CO)O2)c(=O)[nH]c1=O

Reference: ChEMBL document CHEMBL1152578, “Inhibition of ribonuclease A by nucleoside-dibasic acid conjugates” (Bioorg Med Chem, 2009)
